Columns and labels:
[1] = Inhibition of trypsin
Prothrombin = Prothrombin (Homo sapiens, UniProt P00734); experiment: Inhibition of thrombin
Plasma = experiment: Anticoagulant activity in human plasma assessed as concentration required to double activated partial thromboplastin time; assay type: functional

Row | SMILES | Ki [1] | Ki (Prothrombin) | 2aPTT (Plasma)
1 | Cc1cc(OCC(F)(F)c2cc(C)ccn2)cc(C(=O)N(CC(C)C)CC(C)C)c1 | > 100000 nM | 37 nM | –
2 | COc1ccc(Cl)cc1CCOc1cc(C)cc(C(=O)N(CC(C)C)CC(C)C)c1 | > 100000 nM | 34 nM | –
3 | COC(=O)COc1ccc(Cl)cc1CCOc1cc(C)cc(C(=O)N(CC(C)C)CC(C)C)c1 | > 100000 nM | 0.73 nM | >8.2 µM
4 | Cc1cc(C(=O)NCc2cc(Cl)ccc2-n2cncn2)cc(C(=O)N(CC(C)C)CC(C)C)c1 | > 100000 nM | 7 nM | 5.3 µM
5 | Cc1cc(C(=O)NCc2ccccc2-n2cnnn2)cc(C(=O)N(CC(C)C)CC(C)C)c1 | > 100000 nM | 50 nM | –
6 | CC(=O)c1ccncc1-c1cc(C)cc(C(=O)NCc2cc(Cl)ccc2-n2cnnn2)c1 | > 100000 nM | 85 nM | –
7 | Cc1cc(C(=O)NCc2cc(Cl)ccc2-n2cnnn2)cc(-c2cnccc2C(C)C)c1 | > 100000 nM | 0.27 nM | 1.5 µM
8 | Cc1cc(NC2CCCCC2)cc(C(=O)NCc2cc(Cl)ccc2-n2cnnn2)c1 | > 100000 nM | 9.6 nM | >8.2 µM
9 | CC(=O)N(c1cc(C)cc(C(=O)NCc2cc(Cl)ccc2-n2cnnn2)c1)C1CCCCC1 | > 100000 nM | 4.1 nM | 1.67 µM
10 | Cc1cc(C(=O)NCc2cc(Cl)ccc2-n2cnnn2)cc(N(C2CCCCC2)S(C)(=O)=O)c1 | > 100000 nM | 0.93 nM | 0.87 µM
11 | Cc1cc(C(=O)NCc2cc(Cl)ccc2-n2cnnn2)cc(N(C2CCCC2)S(C)(=O)=O)c1 | > 100000 nM | 1.25 nM | 0.75 µM

More lines, main results first:

Row | Ki [1] | Ki (Prothrombin) | SMILES | 2aPTT (Plasma)
12 | 2600 nM | 3.5 nM | Cc1cc(OCCc2nc[nH]c2C)cc(C(=O)N(CC(C)C)CC(C)C)c1 | 4.1 µM
13 | 29000 nM | 2.9 nM | Cc1cc(OCCc2ccccc2CN)cc(C(=O)N(CC(C)C)CC(C)C)c1 | 3.6 µM
14 | 37000 nM | 1.7 nM | Cc1cc(OCCc2ccccc2-n2cnnn2)cc(C(=O)N(CC(C)C)CC(C)C)c1 | 4.4 µM
15 | 28000 nM | 0.93 nM | Cc1cc(OCCc2cc(Cl)ccc2-n2cncn2)cc(C(=O)N(CC(C)C)CC(C)C)c1 | 7.1 µM
16 | 78000 nM | 1.6 nM | Cc1cc(OCCc2cc(Cl)ccc2OCC(=O)NC2CCCNC2)cc(C(=O)N(CC(C)C)CC(C)C)c1 (stereo unspecified) | >8.2 µM
17 | 111000 nM | 0.68 nM | Cc1cc(C(=O)NCc2cc(Cl)ccc2CN)cc(C(=O)N(CC(C)C)CC(C)C)c1 | 1.6 µM
18 | 29000 nM | 0.27 nM | Cc1cc(C(=O)NCc2cc(Cl)ccc2-n2cnnn2)cc(C(=O)N(CC(C)C)CC(C)C)c1 | 1.2 µM
19 | 302000 nM | 67 nM | Cc1cc(C(=O)NCc2cc(Cl)ccc2-n2cnnn2)cc(-c2cnccc2N(C)C)c1 | –
20 | 483000 nM | 0.77 nM | Cc1cc(C(=O)NCc2cc(Cl)ccc2-n2cnnn2)cc(-c2c[n+]([O-])ccc2C(C)C)c1 | 0.38 µM
21 | 278000 nM | 1.8 nM | Cc1cc(C(=O)NCc2cc(Cl)ccc2-n2cnnn2)cc(C2CNCCC2CC(C)C)c1 (stereo unspecified) | 1.42 µM
22 | 75000 nM | 1.6 nM | Cc1cc(C(=O)NCc2cc(Cl)ccc2-n2cnnn2)cc(N(CCN)C2CCCCC2)c1 | 1.48 µM

From ChEMBL document CHEMBL1681658, “Design, synthesis and SAR of a series of 1,3,5-trisubstituted benzenes as thrombin inhibitors” (Bioorg Med Chem Lett, 2011)
